Reference: US10137210B2, “Thioflavin derivatives for use in antemortem diagnosis of Alzheimer's disease and in vivo imaging and prevention of amyloid deposition” (UNIVERSITY OF PITTSBURGH—OF THE COMMONWEALTH SYSTEM OF …, priority 2000, dated 2018)
Entries after “also recorded” stand apart in the source; their conditions may differ. Where two headings read alike, the source gives them in different places. Values belong to the molecule of their own block, whether it stands above or below them.

How the values were obtained:
[1] = Partitioning between octanol and phosphate-buffered saline (logP)
[2] = In vivo brain uptake and retention in mice; parameters: species or system mouse; conditions: for Mouse Brain Uptake @ 2 min / Mouse Brain Uptake @ 30 min: 11C-labeled compound; for 2 min (% ID/g): brain uptake at 2 min; for 2 min (% ID/g) / 30 min (% ID/g): Table 1 lower part; for 30 min (% ID/g): brain uptake at 30 min
Source text: In Table 1 below are five different ^11C-labeled BTA derivatives where their in vitro binding properties, log P values, and in vivo brain uptake and retention properties in mice have been determined.

[3] = physchem
[4] = biological target: Aβ(1-40) fibrils (Homo sapiens (Human), UniProt P05067); test: [N-methyl-11C]BTA-1 binding assay with Aβ(1-40) fibrils
Chain of Aβ(1-40) fibrils (P05067 672-711): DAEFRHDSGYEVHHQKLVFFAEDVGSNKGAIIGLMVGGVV

[5] = system: plaques and tangles in post-mortem AD brain; test: Preliminary tissue staining of post-mortem AD brain with ThT and derivatives; assay type: binding, human; conditions: for staining of plaques and tangles in AD brain: post-mortem AD brain, fluorescence; for staining detectable at low concentration of staining solution: staining solutions containing only 10 nM of the BTA compound
Source text: Thus, in the development of these compounds, tissue staining has served the dual purpose of assessing specificity of staining in AD brain tissue as well as assessing binding affinity by screening staining solutions over a range of concentrations similar to that employed in the binding assays.

[6] = In vivo PET brain imaging in baboons; conditions: normal baboon brain, 5-15 min post injection, 3 mCi i.v.
Method: Brain imaging studies were conducted following the intravenous injection of 3-5 mCi of radiotracer. Typical attenuation- and decay-corrected time-activity curves for a frontal cortex region of interest for each of the three compounds are shown in FIG. 6. It is noted that the absolute brain uptake of these 3 compounds in baboons is very similar to that in mice (i.e., about 0.47 to 0.39%ID/g*kg). […] The rank order of maximum brain uptake and clearance rate of the three compounds were also the same in mice and baboons. […] Typical amounts of unmetabolized injectate in plasma for all three compounds were about: 90% at 2 minutes; 35% at 30 minutes; and 20% at 60 minutes.
The emission files collected 5-15 min post injection were summed to provide the images. Brain regions include: Ctx (cortex); Thl (thalamus); Occ (occipital cortex); and Cer (cerebellum).

[7] = system: amyloid deposits in postmortem AD brain; test: Staining of postmortem AD brain tissue sections with unlabeled BTA-1; assay type: binding, human
[8] = biological target: Aβ amyloid plaques and cerebrovascular amyloid (Homo sapiens (Human), UniProt P05067); test: In vivo labeling of amyloid deposits in PS1/APP transgenic mice, multiphoton microscopy; parameters: species or system mouse; conditions: 10 mg/kg ip, imaged 24 hours later, living PS1/APP mice
Chain of Aβ amyloid plaques and cerebrovascular amyloid (P05067 672-713): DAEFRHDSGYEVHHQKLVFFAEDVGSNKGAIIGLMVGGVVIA
Source text: Twenty-four hours later, multiphoton fluorescence microscopy was employed to obtain high resolution images in the brains of living mice using a cranial window technique.

[9] = system: Aβ and tau deposits in brain homogenates; test: [3H]BTA-1 binding to brain homogenates (AD brain and Braak stage II control brain); parameters: species or system human
Source text: This control brain had frequent numbers of NFT in the entorhinal cortex (FIG. 5A), but no neuritic or diffuse plaques in any area of the brain (FIG. 11C). The NFT numbers in the EC of Cntl 04 were similar to the numbers found in many AD cases (FIG. 11B).

[10] = biological target: amyloid deposits in PS1/APP mouse brain (Homo sapiens (Human), UniProt P05067); test: Staining of transgenic PS1/APP mouse brain sections with unlabeled BTA-1; assay type: binding
Chain of amyloid deposits in PS1/APP mouse brain (P05067 672-713): as above
Source text: The PS1/APP mouse model combines two human gene mutations known to cause Alzheimer's disease in a doubly transgenic mouse which deposits Aβ fibrils in amyloid plaques in the brain beginning as early as 3 months of age. […] NFT have not been observed in transgenic mouse models of amyloid deposition.

[11] = biological target: synthetic Aβ(1-40) (Homo sapiens (Human), UniProt P05067); test: Competitive binding with [3H]CG and synthetic Aβ(1-40)
Chain of synthetic Aβ(1-40) (P05067 672-711): as the sequence (P05067 672-711) above

[12] = Table 1, upper part, read-out: Ki (nM) to Aβ fibrils
[13] = Table 1, lower part, read-out: Ki
[14] = competition for Aβ sites, FIG. 5 right panel, read-out: Ki

logP [3]: 1.65
2 min (% ID/g) [2]: 5.64 % ID/g
30 min (% ID/g) [2]: 0.36 % ID/g
Ki [4, 13]: 11.1 nM
Molecule: Nc1ccc(-c2nc3ccc(O)cc3s2)cc1[125I]

brain clearance ([2]; mouse brain): poor brain clearance
Molecule: COc1ccc2nc(-c3ccc(N)cc3)sc2c1 [6-MeO-BTA-0, 6-Methoxy-2-(4-aminophenyl)benzothiazole]

Ki [4, 14]: 100 ± 16 nM
Molecule: Nc1ccc(-c2nc3ccccc3s2)cc1 [BTA-0, 2-(4-Aminophenyl)benzothiazole]

binding in cerebellum and entorhinal cortex ([9]; Braak VI AD brain): low binding
binding in frontal gray versus cerebellum and entorhinal cortex ([9]; Braak VI AD brain): over ten-fold higher levels
binding in NFT-rich entorhinal cortex versus cerebellum and frontal gray ([9]; Braak stage II control brain (Cntl 04)): no greater than
staining of amyloid plaques ([10]; 8 month old PS1/APP mouse brain tissue): clearly visible
staining of cerebrovascular amyloid ([10]; FIG. 8, right): brightly stained
specific binding ([4]; 200 nM Aβ(1-40) fibrils): ~70%
Molecule: CNc1ccc(-c2nc3ccccc3s2)cc1 [BTA-1, 2-(4-Methylaminophenyl)benzothiazole]
distribution of radioactivity in brain (PET) [6]: uniform distribution of radioactivity throughout the brain
staining of neurofibrillary tangles (NFT) ([7]; AD brain, FIG. 8, left): more faintly stained
staining of amyloid plaques ([7]; postmortem AD brain tissue): clearly visible
in vivo labeling of plaques and cerebrovascular amyloid [8]: plaques and cerebrovascular amyloid are clearly distinguishable

Ki [4, 14]: 3 ± 0.8 nM
Molecule: CN(C)c1ccc(-c2nc3ccccc3s2)cc1 [BTA-2, 2-(4-dimethylaminophenyl)benzothiazole]

log of the partition coefficient, logPoct ([1]; octanol / phosphate-buffered saline): 0.57
Molecule: Cc1ccc2c(c1)sc(-c1ccc(N(C)C)cc1)[n+]2C.[Cl-] [ThT, Thioflavin T, reference compound]
staining of plaques and tangles in AD brain [5]: weakly stains plaques
competition with [3H]CG for binding sites on Aβ(1-40) [11]: lack of competition; also recorded: did not

competition with [3H]CG for binding sites on Aβ(1-40) [11]: competed
Molecule: Thioflavin S [ThS]

The remaining lines, values behind:

Molecule: Cc1ccc2nc(-c3ccc(N[11CH3])cc3)sc2c1
logP [1]: 3.3
Mouse Brain Uptake @ 2 min [2]: 0.32 ± 0.07 % ID/g * kg
Mouse Brain Uptake @ 30 min [2]: 0.17 ± 0.05 % ID/g * kg

Molecule: Cc1ccc2nc(-c3ccc(N(C)[11CH3])cc3)sc2c1
logP [3]: 3.9
Mouse Brain Uptake @ 2 min [2]: 0.15 ± 0.06 % ID/g * kg
Mouse Brain Uptake @ 30 min [2]: 0.16 ± 0.02 % ID/g * kg
Ratio of 2 min/30 min Uptake Values ([2]; mouse brain): 0.9

Molecule: COc1ccc2nc(-c3ccc(N[11CH3])cc3)sc2c1
logP [3]: 2.7
Mouse Brain Uptake @ 2 min [2]: 0.43 ± 0.11 % ID/g * kg
Mouse Brain Uptake @ 30 min [2]: 0.094 ± 0.038 % ID/g * kg
Ratio of 2 min/30 min Uptake Values ([2]; mouse brain): 4.6
Ki [4, 12]: 5.7 nM

Molecule: COc1ccc2nc(-c3ccc(N(C)[11CH3])cc3)sc2c1
logP [3]: 3.3
Mouse Brain Uptake @ 2 min [2]: 0.32 ± 0.09 % ID/g * kg
Mouse Brain Uptake @ 30 min [2]: 0.42 ± 0.10 % ID/g * kg
Ratio of 2 min/30 min Uptake Values ([2]; mouse brain): 0.8
Ki [4, 12]: 2.3 nM

Molecule: [11CH3]Nc1ccc(-c2nc3ccccc3s2)cc1
logP [3]: 2.7
Mouse Brain Uptake @ 2 min [2]: 0.44 ± 0.14 % ID/g * kg
Mouse Brain Uptake @ 30 min [2]: 0.057 ± 0.010 % ID/g * kg

Molecule: Nc1ccc(-c2nc3ccccc3s2)cc1[125I]
logP [3]: 3.17
2:30 min ratio ([2]; Table 1, lower part): 2.7
2 min (% ID/g) [2]: 9.08 % ID/g
30 min (% ID/g) [2]: 3.4 % ID/g
Ki [4, 13]: 8.32 nM

Molecule: Cc1ccc2nc(-c3ccc(N)cc3)sc2c1 [6-Me-BTA-0, 2-(4′-aminophenyl)-6-methyl-benzothiazole]
staining of plaques and tangles in AD brain [5]: stain plaques and tangles
staining detectable at low concentration of staining solution [5]: could still be detected

Molecule: CNc1ccc(-c2nc3ccc(C)cc3s2)cc1 [6-Me-BTA-1]
staining detectable at low concentration of staining solution [5]: could still be detected

Molecule: Cc1ccc2nc(-c3ccc(N(C)C)cc3)sc2c1 [6-Me-BTA-2, 2-(4′-dimethylaminophenyl)-6-methyl-benzothiazole]
staining of plaques and tangles in AD brain [5]: stain plaques and tangles

Molecule: c1ccc(-c2nc3ccccc3s2)cc1 [BTP, 2-phenylbenzothiazole, reference compound]
staining of plaques and tangles in AD brain [5]: does not appear to stain plaques
